What all share (format): cell-based
Test [1] has as its target T1, human TLR7 (Homo sapiens, UniProt Q9NYK1).
T1 construct: host or cells: HEK-Blue cells (HEK293-derived reporter line)
T1 sequence (Q9NYK1 27-1049): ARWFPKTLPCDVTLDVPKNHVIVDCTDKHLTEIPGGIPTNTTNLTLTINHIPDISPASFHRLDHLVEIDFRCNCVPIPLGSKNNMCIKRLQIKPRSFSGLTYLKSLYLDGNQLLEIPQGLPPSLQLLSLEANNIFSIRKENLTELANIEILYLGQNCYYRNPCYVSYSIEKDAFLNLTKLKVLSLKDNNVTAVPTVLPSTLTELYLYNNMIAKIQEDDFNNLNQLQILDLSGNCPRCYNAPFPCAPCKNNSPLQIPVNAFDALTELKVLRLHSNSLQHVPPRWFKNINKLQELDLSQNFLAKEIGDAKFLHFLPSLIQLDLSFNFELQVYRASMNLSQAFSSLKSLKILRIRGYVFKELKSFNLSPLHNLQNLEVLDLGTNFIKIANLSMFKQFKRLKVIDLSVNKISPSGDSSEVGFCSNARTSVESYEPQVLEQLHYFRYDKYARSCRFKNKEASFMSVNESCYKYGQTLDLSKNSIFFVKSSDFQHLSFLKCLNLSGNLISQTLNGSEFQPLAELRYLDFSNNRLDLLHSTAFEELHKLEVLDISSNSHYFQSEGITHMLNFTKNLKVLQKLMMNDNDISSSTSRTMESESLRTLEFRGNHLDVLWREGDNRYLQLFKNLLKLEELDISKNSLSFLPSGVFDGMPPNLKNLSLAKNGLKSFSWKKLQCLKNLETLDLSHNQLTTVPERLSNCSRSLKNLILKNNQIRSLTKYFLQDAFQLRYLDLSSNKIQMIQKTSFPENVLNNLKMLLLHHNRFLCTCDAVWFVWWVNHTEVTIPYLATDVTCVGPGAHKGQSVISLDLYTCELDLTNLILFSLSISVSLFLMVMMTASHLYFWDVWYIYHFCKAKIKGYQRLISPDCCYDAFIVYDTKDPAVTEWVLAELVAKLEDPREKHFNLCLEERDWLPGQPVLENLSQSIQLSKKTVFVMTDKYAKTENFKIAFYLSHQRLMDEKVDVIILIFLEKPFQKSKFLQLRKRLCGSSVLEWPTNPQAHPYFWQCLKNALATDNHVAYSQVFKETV
The experiment in a line: TLR7 inhibition reporter assay (HEK-Blue cells, SEAP reporter, gardiquimod stimulation). The conditions noted are these: HEK-Blue cells overexpressing human TLR7, SEAP reporter, gardiquimod 7.5 μM. In short, it runs like this: (§1)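 After 22 h at 37 °C, SEAP secretion was measured from human TLR7-, TLR8- or TLR9-expressing HEK-Blue reporter cells given compound (0.05 nM–50 μM) 30 min before agonist: 7.5 μM gardiquimod, 15.9 μM R848 or 5 nM ODN2006 respectively. Percent inhibition referenced to agonist-plus-DMSO and known-inhibitor wells.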
A general note: A reporter such as luciferase makes a cellular process visible.

The target in test [2] is T2, human TLR8 (Homo sapiens, UniProt Q9NR97).
T2 construct: host or cells: HEK-Blue cells (HEK293-derived reporter line)
T2 sequence (Q9NR97 27-1041): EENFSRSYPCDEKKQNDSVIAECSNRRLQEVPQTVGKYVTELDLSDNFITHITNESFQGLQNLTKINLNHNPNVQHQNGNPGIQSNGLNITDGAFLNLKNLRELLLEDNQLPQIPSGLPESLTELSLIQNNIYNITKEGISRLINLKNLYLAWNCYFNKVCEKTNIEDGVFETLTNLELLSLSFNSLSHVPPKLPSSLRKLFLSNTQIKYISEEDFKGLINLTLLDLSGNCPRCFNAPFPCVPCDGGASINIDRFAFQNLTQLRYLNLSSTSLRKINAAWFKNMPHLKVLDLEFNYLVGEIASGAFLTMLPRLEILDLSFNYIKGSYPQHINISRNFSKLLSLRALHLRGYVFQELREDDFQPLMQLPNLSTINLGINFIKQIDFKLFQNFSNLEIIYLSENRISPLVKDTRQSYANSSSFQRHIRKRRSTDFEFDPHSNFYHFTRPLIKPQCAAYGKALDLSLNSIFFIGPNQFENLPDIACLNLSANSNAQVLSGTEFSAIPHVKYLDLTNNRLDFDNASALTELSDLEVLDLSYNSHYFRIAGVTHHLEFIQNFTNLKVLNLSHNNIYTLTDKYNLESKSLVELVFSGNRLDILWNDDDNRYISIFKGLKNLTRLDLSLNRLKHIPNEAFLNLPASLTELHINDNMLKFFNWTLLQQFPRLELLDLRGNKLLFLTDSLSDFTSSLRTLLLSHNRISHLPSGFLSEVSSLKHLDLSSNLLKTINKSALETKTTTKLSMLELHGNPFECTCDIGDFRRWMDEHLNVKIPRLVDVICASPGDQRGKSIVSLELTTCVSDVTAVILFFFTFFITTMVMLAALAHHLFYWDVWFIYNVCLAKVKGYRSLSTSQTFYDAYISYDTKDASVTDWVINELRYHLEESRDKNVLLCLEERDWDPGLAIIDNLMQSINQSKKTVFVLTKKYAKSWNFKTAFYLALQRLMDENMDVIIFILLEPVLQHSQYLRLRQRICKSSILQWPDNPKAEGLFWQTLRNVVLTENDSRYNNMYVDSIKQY
The experiment in a line: TLR8 inhibition reporter assay (HEK-Blue cells, SEAP reporter, R848 stimulation). The conditions noted are these: HEK-Blue cells overexpressing human TLR8, SEAP reporter, R848 15.9 μM. In short, it runs like this:
as §1

The target of test [3] is T3, human TLR9 (Homo sapiens, UniProt Q9NR96).
T3 construct: host or cells: HEK-Blue cells (HEK293-derived reporter line)
T3 sequence (Q9NR96 26-1032): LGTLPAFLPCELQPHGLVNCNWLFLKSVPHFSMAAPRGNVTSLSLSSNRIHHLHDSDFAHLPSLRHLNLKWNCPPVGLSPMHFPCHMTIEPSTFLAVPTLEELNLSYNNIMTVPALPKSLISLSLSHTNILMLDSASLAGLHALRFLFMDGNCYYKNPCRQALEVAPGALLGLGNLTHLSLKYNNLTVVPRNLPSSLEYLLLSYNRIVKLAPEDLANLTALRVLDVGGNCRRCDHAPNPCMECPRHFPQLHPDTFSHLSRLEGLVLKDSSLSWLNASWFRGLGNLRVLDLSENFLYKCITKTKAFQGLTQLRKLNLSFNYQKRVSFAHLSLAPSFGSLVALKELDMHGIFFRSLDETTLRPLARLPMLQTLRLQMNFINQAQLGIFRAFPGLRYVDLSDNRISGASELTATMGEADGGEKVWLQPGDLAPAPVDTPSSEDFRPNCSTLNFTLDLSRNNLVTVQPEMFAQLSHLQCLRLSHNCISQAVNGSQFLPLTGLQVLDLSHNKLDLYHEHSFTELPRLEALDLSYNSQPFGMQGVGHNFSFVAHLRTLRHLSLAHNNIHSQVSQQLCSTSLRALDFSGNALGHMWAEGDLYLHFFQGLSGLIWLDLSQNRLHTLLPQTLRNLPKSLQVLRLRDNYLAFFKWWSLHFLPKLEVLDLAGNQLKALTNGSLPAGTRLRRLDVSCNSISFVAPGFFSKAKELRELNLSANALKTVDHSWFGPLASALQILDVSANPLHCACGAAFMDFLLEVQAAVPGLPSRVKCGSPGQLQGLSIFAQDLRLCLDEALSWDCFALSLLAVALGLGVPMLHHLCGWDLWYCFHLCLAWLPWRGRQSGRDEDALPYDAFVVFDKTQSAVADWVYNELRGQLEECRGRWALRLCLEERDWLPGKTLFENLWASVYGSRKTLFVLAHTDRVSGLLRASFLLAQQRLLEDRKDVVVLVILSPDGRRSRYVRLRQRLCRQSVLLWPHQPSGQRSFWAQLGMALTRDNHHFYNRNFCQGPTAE
The experiment in a line: TLR9 inhibition reporter assay (HEK-Blue cells, SEAP reporter, ODN2006 stimulation). The conditions noted are these: HEK-Blue cells overexpressing human TLR9, SEAP reporter, ODN2006 5 nM. In short, it runs like this: as §1

pIC50: −log10 of the molar value. Bounds are passed on as bounds.

One may read the pIC50 as −log10 of the IC50, conventionally taken in molar units. Lower therefore signals a high IC50.

As for `CCc1c(-c2ncnc3[nH]ccc23)[nH]c2ccc(C3CCNCC3)cc12` [Example 206, 4-(3-ethyl-5-(piperidin-4-yl)-1H-indol-2-yl)-7H-pyrrolo[2,3-d] pyrimidine], the results for the pIC50 in test [1], in test [2] and in test [3] were 6.00 to 7.00, greater than 7.00 and 4.30 to 6.00, respectively.

`CC(C)c1c(-c2cc3c(s2)CNCC3)[nH]c2ccc(C3CCNCC3)cc12` [Example 207, 2-(3-isopropyl-5-(piperidin-4-yl)-1H-indol-2-yl)-4,5,6,7-tetrahydrothieno [2,3-c]pyridine]: the pIC50 in test [1] was 6.00 to 7.00; in test [2], 4.30 to 6.00; in test [3], greater than 7.00.

Regarding `CC(C)c1c(-c2nc3c(s2)CNCC3)[nH]c2ccc(C3CCNCC3)cc12` [Example 208, 2-(3-isopropyl-5-(piperidin-4-yl)-1H-indol-2-yl)-4,5,6,7-tetrahydrothiazolo[5,4-c]pyridine], the figures for the pIC50 in test [1], in test [2] and in test [3] were 4.30 to 6.00, 4.30 to 6.00 and greater than 7.00, respectively.

Take `CC(C)c1c(-c2ccc3ncsc3n2)[nH]c2ccc(C3CCNCC3)cc12` [Example 209, 5-(3-isopropyl-5-(piperidin-4-yl)-1H-indol-2-yl) thiazolo[5,4-b]pyridine]: the pIC50 in test [1] is greater than 7.00; in test [2], greater than 7.00; in test [3], 4.30 to 6.00.

On to `CNc1c[nH]c2nccc(-c3[nH]c4ccc(C5CCNCC5)cc4c3C)c12` [Example 210, N-methyl-4-(3-methyl-5-(piperidin-4-yl)-1H-indol-2-yl)-1H-pyrrolo[2,3-b]pyridin-3-amine], for which the pIC50 in test [1], in test [2] and in test [3] was 4.30 to 6.00 each time.

On to `Cc1c(-c2ccnc3[nH]cc(N)c23)[nH]c2ccc(C3CCNCC3)cc12` [Example 211, 4-(3-methyl-5-(piperidin-4-yl)-1H-indol-2-yl)-1H-pyrrolo[2,3-b]pyridin-3-amine], for which the pIC50 in test [1], in test [2] and in test [3] was 4.30 to 6.00 throughout.

With `Cc1c(-c2ccnc3[nH]cc(O)c23)[nH]c2ccc(C3CCNCC3)cc12` [Example 212, 4-(3-methyl-5-(piperidin-4-yl)-1H-indol-2-yl)-1H-pyrrolo[2,3-b]pyridin-3-ol], the pIC50 in test [1], in test [2] and in test [3] was 4.30 to 6.00 each time.

As to `COc1c[nH]c2nccc(-c3[nH]c4ccc(C5CCNCC5)cc4c3C)c12` [Example 213, 3-methoxy-4-(3-methyl-5-(piperidin-4-yl)-1H-indol-2-yl)-1H-pyrrolo[2,3-b]pyridine], the negative-log IC50 (pIC50) was 4.30 to 6.00 in test [1], 6.00 to 7.00 in test [2] and 4.30 to 6.00 in test [3].

Turning to `Cc1c(-c2ccnc3[nH]cc(C(C)C)c23)[nH]c2ccc(C3CCNCC3)cc12` [Example 214, 3-isopropyl-4-(3-methyl-5-(piperidin-4-yl)-1H-indol-2-yl)-1H-pyrrolo[2,3-b]pyridine], the pIC50 is 4.30 to 6.00 in test [1], 4.30 to 6.00 in test [2] and 6.00 to 7.00 in test [3].

Take `Cc1c[nH]c2nccc(-c3[nH]c4ccc(C5CCNCC5)cc4c3C(C)C)c12` [Example 215, 4-(3-isopropyl-5-(piperidin-4-yl)-1H-indol-2-yl)-3-methyl-1H-pyrrolo[2,3-b]pyridine]: the pIC50 in test [1] is 6.00 to 7.00; in test [2] it was 6.00 to 7.00; in test [3], 4.30 to 6.00.

For the compound `CC(C)c1c(-c2ccnc3[nH]cc(O)c23)[nH]c2ccc(C3CCNCC3)cc12` [Example 216, 4-(3-isopropyl-5-(piperidin-4-yl)-1H-indol-2-yl)-1H-pyrrolo[2,3-b]pyridin-3-ol], the figures for the pIC50 in test [1], in test [2] and in test [3] were 4.30 to 6.00, 6.00 to 7.00 and 4.30 to 6.00, respectively.

As to `CCc1c(-c2ccnc3[nH]cc(C)c23)[nH]c2ccc(C3CCNCC3)cc12` [Example 217, 4-(3-ethyl-5-(piperidin-4-yl)-1H-indol-2-yl)-3-methyl-1H-pyrrolo[2,3-b]pyridine], the negative logarithm of the IC50 (pIC50) in test [1], in test [2] and in test [3] was 6.00 to 7.00 in each case.

The record behind these values is patent US11739098B2 (BRISTOL-MYERS SQUIBB COMPANY, priority 2017, dated 2023).
